Target: T1, P2X7 receptor (Homo sapiens, UniProt Q99572)
T1 construct: host or cells: THP-1 cells differentiated with LPS and IFN-γ
T1 sequence (Q99572 1-595): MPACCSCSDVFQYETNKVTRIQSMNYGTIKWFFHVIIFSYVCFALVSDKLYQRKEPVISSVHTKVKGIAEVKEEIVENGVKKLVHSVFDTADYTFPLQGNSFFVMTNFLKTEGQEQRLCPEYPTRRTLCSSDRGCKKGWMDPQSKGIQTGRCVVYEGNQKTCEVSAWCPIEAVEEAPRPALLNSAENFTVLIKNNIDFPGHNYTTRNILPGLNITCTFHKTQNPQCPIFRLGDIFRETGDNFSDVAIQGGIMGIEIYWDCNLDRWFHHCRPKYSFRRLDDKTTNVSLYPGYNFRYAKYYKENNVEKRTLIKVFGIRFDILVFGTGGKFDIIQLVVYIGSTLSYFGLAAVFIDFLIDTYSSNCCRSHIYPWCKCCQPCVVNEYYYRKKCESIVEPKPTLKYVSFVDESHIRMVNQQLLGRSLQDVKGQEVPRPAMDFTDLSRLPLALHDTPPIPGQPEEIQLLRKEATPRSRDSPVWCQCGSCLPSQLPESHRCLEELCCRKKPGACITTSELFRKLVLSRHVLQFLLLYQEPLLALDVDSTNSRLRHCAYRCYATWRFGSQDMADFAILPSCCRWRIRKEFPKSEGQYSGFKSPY
Test: Alternate method for IL-1β release assay (differentiated THP-1 cells, BzATP-stimulated, ELISA)
Assay type: cell-based
Details: P2X7, read-out: IL-1β % inhib @ 0.3 μM
How it was run: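 After 16 h differentiation with 100 ng/mL LPS and 100 ng/mL IFN-γ plus a further 2 h LPS priming, THP-1 cells were pretreated 30 min with compound, then stimulated with 250 uM BzATP (final) for 45 min. Supernatant IL-1β measured by ELISA; percent inhibition from background-adjusted levels versus untreated cells.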

Structure (SMILES)	inhibition at 0.3 µM [%]
O=C(CN1CCCCC1)N1CCc2c(ncnc2NCC23CC4CC(CC(C4)C2)C3)C1 [Compound 266]	0 to 25

Same assay, conditions: P2X7; 0.1 μM compound (symbols + to ++++); read-out: IL-1β % inhib @ 0.1 μM

inhibition at 0.1 µM [%]	Structure (SMILES)
0 to 25	O=C(C1CCOC1)N1CCc2c(ncnc2NCC23CC4CC(CC(C4)C2)C3)C1 (stereo not shown) [Compound 249, {4-[(Adamantan-1-ylmethyl)-amino]-5,8-dihydro-6H-pyrido[3,4-d]pyrimidin-7-yl}-(tetrahydro-furan-3-yl)-methanone]
0 to 25	O=C(O[C@@H]1CCOC1)N1CCc2c(ncnc2NCC23CC4CC(CC(C4)C2)C3)C1 [Compound 250, 4-[(Adamantan-1-ylmethyl)-amino]-5,8-dihydro-6H-pyrido[3,4-d]pyrimidine-7-carboxylic acid (R)-(tetrahydro-furan-3-yl)ester]
0 to 25	O=C(COc1ccc(OC(F)(F)F)cc1)N1CCc2c(ncnc2NCC23CC4CC(CC(C4)C2)C3)C1 [Compound 251, 1-{4-[(Adamantan-1-ylmethyl)-amino]-5,8-dihydro-6H-pyrido[3,4-d]pyrimidin-7-yl}-2-(4-trifluoromethoxy-phenoxy)-ethanone]
> 75	FC12CC3CC(C1)CC(CNc1ncnc4c1CCN(Cc1ccccc1)C4)(C3)C2 [Compound 252]
> 75	O=C(c1cccnc1)N1CCc2c(ncnc2NCC23CC4CC(CC(C4)C2)C3)C1 [Compound 257, 4-[(Adamantan-1-ylmethyl)-amino]-5,8-dihydro-6H-pyrido[3,4-d]pyrimidin-7-yl-pyridin-3-yl-methanone]
> 75	CN(CC(=O)N1CCc2c(ncnc2NCC23CC4CC(CC(C4)C2)C3)C1)Cc1ccccc1 [Compound 260]
25 to 50	O=C(c1cccnc1)N1CCc2c(ncnc2NCC23CC4CC(CC(F)(C4)C2)C3)C1 [Compound 322]
50 to 75	Fc1ccc(CN2CCc3c(ncnc3NCC34CC5CC(CC(F)(C5)C3)C4)C2)c(F)c1 [Compound 323]
50 to 75	O=C(OCc1ccc(C(F)(F)F)cc1)N1CCc2c(ncnc2NCC23CC4CC(CC(C4)C2)C3)C1 [Compound 324]
> 75	O=C(OCc1ccc(F)cc1F)N1CCc2c(ncnc2NCC23CC4CC(CC(C4)C2)C3)C1 [Compound 325]

Same assay, conditions: P2X7; 0.3 μM compound (symbols * to ****); read-out: IL-1β % inhib @ 0.3 μM

Structure (SMILES)	inhibition at 0.3 µM [%]
CCN(CC(=O)N1CCc2c(ncnc2NCC2C3CC4CC(C3)CC2C4)C1)Cc1ccncc1 (stereo not shown) [Compound 268]	50 to 75
CN(CC(=O)N1CCc2c(ncnc2NCC2C3CC4CC(C3)CC2C4)C1)C1CCCCC1 (stereo not shown) [Compound 269]	50 to 75
O=C(CN1CCOCC1)N1CCc2c(ncnc2NCC2C3CC4CC(C3)CC2C4)C1 (stereo not shown) [Compound 272]	0 to 25
O=C(CN1CCCCCC1)N1CCc2c(ncnc2NCC2C3CC4CC(C3)CC2C4)C1 (stereo not shown) [Compound 275]	0 to 25
CN(C)CCCN(C)CC(=O)N1CCc2c(ncnc2NCC2C3CC4CC(C3)CC2C4)C1 (stereo not shown) [Compound 276]	0 to 25
CN(CCC#N)CC(=O)N1CCc2c(ncnc2NCC2C3CC4CC(C3)CC2C4)C1 (stereo not shown) [Compound 277]	0 to 25
CCN1CCN(CC(=O)N2CCc3c(ncnc3NCC3C4CC5CC(C4)CC3C5)C2)CC1 (stereo not shown) [Compound 278]	25 to 50
CCN(C)CC(=O)N1CCc2c(ncnc2NCC2C3CC4CC(C3)CC2C4)C1 (stereo not shown) [Compound 282]	0 to 25
O=C(CN1CCC1)N1CCc2c(ncnc2NCC2C3CC4CC(C3)CC2C4)C1 (stereo not shown) [Compound 283]	0 to 25
CC(C)N1CCN(CC(=O)N2CCc3c(ncnc3NCC3C4CC5CC(C4)CC3C5)C2)CC1 (stereo not shown) [Compound 285]	0 to 25
CCCCN(C)CC(=O)N1CCc2c(ncnc2NCC2C3CC4CC(C3)CC2C4)C1 (stereo not shown) [Compound 288]	50 to 75
CN1CCC(NCC(=O)N2CCc3c(ncnc3NCC3C4CC5CC(C4)CC3C5)C2)CC1 (stereo not shown) [Compound 289]	0 to 25
CC1CCN(CC(=O)N2CCc3c(ncnc3NCC3C4CC5CC(C4)CC3C5)C2)CC1 (stereo not shown) [Compound 292]	25 to 50
CN(CC(=O)N1CCc2c(ncnc2NCC2C3CC4CC(C3)CC2C4)C1)Cc1ccco1 (stereo not shown) [Compound 295]	0 to 25
COc1ccc(CN(C)CC(=O)N2CCc3c(ncnc3NCC3C4CC5CC(C4)CC3C5)C2)cc1OC (stereo not shown) [Compound 296]	0 to 25
COc1ccc(CCN(C)CC(=O)N2CCc3c(ncnc3NCC3C4CC5CC(C4)CC3C5)C2)cc1OC (stereo not shown) [Compound 297]	0 to 25

Structure (SMILES)	inhibition at 0.3 µM [%]
O=C(CN1CCC(N2CCOCC2)CC1)N1CCc2c(ncnc2NCC2C3CC4CC(C3)CC2C4)C1 (stereo not shown) [Compound 299]	25 to 50
O=C(CN1CCN(c2ncccn2)CC1)N1CCc2c(ncnc2NCC2C3CC4CC(C3)CC2C4)C1 (stereo not shown) [Compound 301]	0 to 25
O=C(CN1CCN(c2ncncn2)CC1)N1CCc2c(ncnc2NCC2C3CC4CC(C3)CC2C4)C1 (stereo not shown) [Compound 302]	25 to 50
O=C(CN1CCN(CCn2cccc2)CC1)N1CCc2c(ncnc2NCC2C3CC4CC(C3)CC2C4)C1 (stereo not shown) [Compound 303]	25 to 50
COCCN(C)CC(=O)N1CCc2c(ncnc2NCC2C3CC4CC(C3)CC2C4)C1 (stereo not shown) [Compound 304]	25 to 50
CN(CC(=O)N1CCc2c(ncnc2NCC2C3CC4CC(C3)CC2C4)C1)Cc1ccc(Cl)cc1 (stereo not shown) [Compound 306]	25 to 50
COc1cccc(CN(C)CC(=O)N2CCc3c(ncnc3NCC3C4CC5CC(C4)CC3C5)C2)c1 (stereo not shown) [Compound 308]	0 to 25
CCc1ccc(CN(C)CC(=O)N2CCc3c(ncnc3NCC3C4CC5CC(C4)CC3C5)C2)cc1 (stereo not shown) [Compound 309]	25 to 50
O=C(CN1CCC(F)(F)CC1)N1CCc2c(ncnc2NCC2C3CC4CC(C3)CC2C4)C1 (stereo not shown) [Compound 310]	0 to 25
CN(CC(=O)N1CCc2c(ncnc2NCC2C3CC4CC(C3)CC2C4)C1)Cc1cccc(Cl)c1 (stereo not shown) [Compound 311]	25 to 50
CC(C)N(C)CC(=O)N1CCc2c(ncnc2NCC2C3CC4CC(C3)CC2C4)C1 (stereo not shown) [Compound 313]	0 to 25
CN1CCC(N(C)CC(=O)N2CCc3c(ncnc3NCC3C4CC5CC(C4)CC3C5)C2)C1 (stereo not shown) [Compound 314]	0 to 25
COc1ccc(CN(C)CC(=O)N2CCc3c(ncnc3NCC3C4CC5CC(C4)CC3C5)C2)cc1 (stereo not shown) [Compound 316]	25 to 50
Cc1ccc(CN(C)CC(=O)N2CCc3c(ncnc3NCC3C4CC5CC(C4)CC3C5)C2)cc1 (stereo not shown) [Compound 318]	25 to 50
CN(CC(=O)N1CCc2c(ncnc2NCC2C3CC4CC(C3)CC2C4)C1)Cc1ccncc1 (stereo not shown) [Compound 319]	25 to 50

The remaining lines, values ahead:

inhibition at 0.3 µM [%]	Structure (SMILES)
> 75	O=C(c1cnn(-c2ccccc2)c1C(F)(F)F)N1CCc2c(ncnc2NCC23CC4CC(CC(C4)C2)C3)C1 [Compound 255]
0 to 25	CN(C)CCN1CCN(CC(=O)N2CCc3c(ncnc3NCC34CC5CC(CC(C5)C3)C4)C2)CC1 [Compound 258]
50 to 75	O=C(CN1CCN(c2ccccc2)CC1)N1CCc2c(ncnc2NCC23CC4CC(CC(C4)C2)C3)C1 [Compound 259]
25 to 50	O=C(CNC1CCN(Cc2ccccc2)CC1)N1CCc2c(ncnc2NCC23CC4CC(CC(C4)C2)C3)C1 [Compound 261]
25 to 50	O=C(CN1CCC(Cc2ccccc2)CC1)N1CCc2c(ncnc2NCC23CC4CC(CC(C4)C2)C3)C1 [Compound 264]
0 to 25	O=C(CN1CCN(CC(=O)N2CCc3c(ncnc3NCC34CC5CC(CC(C5)C3)C4)C2)CC1)N1CCOCC1 [Compound 267]
0 to 25	O=C(CN1CCN(Cc2ccccc2)CC1)N1CCc2c(ncnc2NCC2C3CC4CC(C3)CC2C4)C1 (stereo not shown) [Compound 271]
25 to 50	O=C(CN1CCc2ccccc2C1)N1CCc2c(ncnc2NCC2C3CC4CC(C3)CC2C4)C1 (stereo not shown) [Compound 274]
50 to 75	CN(CCc1ccccn1)CC(=O)N1CCc2c(ncnc2NCC2C3CC4CC(C3)CC2C4)C1 (stereo not shown) [Compound 279]
> 75	CN(CCc1ccccc1)CC(=O)N1CCc2c(ncnc2NCC2C3CC4CC(C3)CC2C4)C1 (stereo not shown) [Compound 284]
0 to 25	O=C(CN1CCC(c2ccccc2)CC1)N1CCc2c(ncnc2NCC2C3CC4CC(C3)CC2C4)C1 (stereo not shown) [Compound 294]
0 to 25	O=C(CN1CCC(C(F)(F)F)CC1)N1CCc2c(ncnc2NCC2C3CC4CC(C3)CC2C4)C1 (stereo not shown) [Compound 300]
0 to 25	CN(CC(=O)N1CCc2c(ncnc2NCC2C3CC4CC(C3)CC2C4)C1)Cc1ccc(F)cc1 (stereo not shown) [Compound 312]
> 75	C[C@@H](c1ccccc1)N(C)CC(=O)N1CCc2c(ncnc2NCC2C3CC4CC(C3)CC2C4)C1 (stereo partly shown) [Compound 315]
25 to 50	CN(CC(=O)N1CCc2c(ncnc2NCC2C3CC4CC(C3)CC2C4)C1)Cc1ccc(C(F)(F)F)cc1 (stereo not shown) [Compound 317]
25 to 50	CN(CC(=O)N1CCc2c(ncnc2NCC2C3CC4CC(C3)CC2C4)C1)Cc1cccnc1 (stereo not shown) [Compound 320]

— patent US20100022531A1, “NOVEL COMPOUNDS AS P2X7 MODULATORS AND USES THEREOF” (RENOVIS, INC., priority 2005, published 2010)
